Key:
[1] = test system: OVCAR-3 (ovary); assay: SRB growth inhibition assay, OVCAR-3; type: cell-based; conditions: Homo sapiens, 96 hours incubation, read-out: Inhibition of cell growth (IC50, μM) Ovcar3
Text: (§1) Cancer cells used in this study to determine the effect of tetrahydroisoquinolin-2-yl-(quinazolin-4-yl)methanone compounds were obtained from the following sources: Human OVCAR-3 (ovary), SK-MEL-28 (melanoma), MDA-MB-231 (breast), HeLa (cervix), PC3 (prostate), HepG2 (liver), A549 (lung), Caki-1 (kidney), HCT116 (colon) and PANC-1 (pancreas) from the American Type Culture Collection (ATCC) (Manassas, Va.); U251 (brain) from Riken (Japan); MKN-45 (stomach) from DSMZ (Germany). All cell lines except MDA-MB-231, HCT116, Caki-1 and PANC-1 were grown in RPMI1640 medium (Invitrogen, Carlsbad, Calif.) supplemented with 10% fetal bovine serum (“FBS”), 1 mM sodium pyruvate, 10 mM HEPES and 100 U/ml penicillin and 100 μg/ml streptomycin (“P/S”). MDA-MB-231, HCT116, Caki-1 and PANC-1 cells were maintained in Dulbecco's modified Eagle's medium (“DMEM”, Invitrogen) supplemented with 10% FBS, P/S, 10 mM HEPES and 2 mM L-glutamine. All cells were incubated at 37° C. under humidified 5% CO2.
(§2) The growth inhibition of the tetrahydroisoquinolin-2-yl-(quinazolin-4-yl)methanone compounds against a variety of human tumor cells was evaluated to study the relative importance of particular substituent groups on the compounds. The tetrahydroisoquinolin-2-yl-(quinazolin-4-yl)methanone compounds, prepared as described above, were tested with DMSO as a control.
(§3) The growth inhibition assay of representative tetrahydroisoquinolin-2-yl-(quinazolin-4-yl)methanone derivatives against human tumor cell lines was performed using the Sulforhodamine B (“SRB”) method (Skehan et al., J. National Cancer Institute, 82: 1107-1112 (1990)). Briefly, exponentially growing tumor cells were seeded into a 96-well plate at a density of 2-3×10^3 cells/well and treated with tetrahydroisoquinolin-2-yl-(quinazolin-4-yl)methanone compounds the next day. Triplicate wells were used for each treatment. The cells were incubated with the various compounds for 96 hours at 37° C. in a humidified 5% CO2 atmosphere. After 96-hour incubation, cells were fixed with 10% trichloroacetic acid (“TCA”), incubated for 1 hour at 4° C., and washed 3 times with tap water. Subsequently, cells were stained with 0.4% sulforhodamine B in 1% acetic acid for 30 minutes, washed 4 times with 1% acetic acid, and air-dried again After 5 minutes agitation in 10 mM Tris solution, the absorbance of each well was measured at 530 nm using Benchmark Plus Microplate reader (Bio-Rad Laboratories, Hercules, Calif.).
(§4) To translate the OD530 values into the number of live cells in each well, the OD530 values were compared to those on standard OD530-versus-cell number curves generated for each cell line. The percent survival was calculated using the formula: % Survival=live cell number [test]/live cell number [control]×100
(§5) The IC50 values were calculated by non-linear regression analysis.

[2] = test system: PANC-1 (pancreas); assay: SRB growth inhibition assay, PANC-1; type: cell-based, Human; conditions: Homo sapiens, PANC-1, 96 hours incubation, read-out: Inhibition of cell growth (IC50, μM) Panc-1
Text: as §1, §2, §3, §4, §5
(§6) The compounds were screened against at […] including PANC-1, MDA-MB-231, HCT116 and Caki-1, at approximately 1 μM concentration. The inhibition of cell growth (IC50, μM) of some tetrahydroisoquinolin-2-yl-(quinazolin-4-yl)methanone compounds are shown in Table 2.

[3] = test system: SK-MEL-28 (melanoma); assay: SRB growth inhibition assay, SK-MEL-28; type: cell-based; conditions: Homo sapiens, 96 hours incubation, read-out: Inhibition of cell growth (IC50, μM) SK-MEL-28
Text: as §1, §2, §3, §4, §5

[4] = test system: Caki-1 (kidney); assay: SRB growth inhibition assay, Caki-1; type: cell-based, Human; conditions: Homo sapiens, CAKI-1, 96 hours incubation, read-out: Inhibition of cell growth (IC50, μM) Caki-1
Text: as §1, §2, §3, §4, §5, §6

[5] = test system: HeLa (cervix); assay: SRB growth inhibition assay, HeLa; type: cell-based; conditions: Homo sapiens, 96 hours incubation, read-out: Inhibition of cell growth (IC50, μM) HeLa
Text: as §1, §2, §3, §4, §5

[6] = test system: MKN-45 (stomach); assay: SRB growth inhibition assay, MKN-45; type: cell-based; conditions: Homo sapiens, 96 hours incubation, read-out: Inhibition of cell growth (IC50, μM) MKN-45
Text: as §1, §2, §3, §4, §5

[7] = test system: MDA-MB-231 human breast adenocarcinoma cells; assay: Xenograft study in nude mice; type: in vivo; conditions: 50 mg/kg intraperitoneal three times per week from day 15; subcutaneous MDA-MB-231 xenograft, female NCr nu/nu mice
Description: Tumor growth inhibition by tetrahydroisoquinolin-2-yl-(quinazolin-4-yl)methanone compounds in an animal model was carried out by performing an […] xenograft study of nude mice was conducted with Compound 1. Suitable human cancer cell lines are those that have been tested previously for inhibition of cancer cell growth. The antitumor efficacy of Compound 1 was evaluated against subcutaneously injected tumor xenografts in nude mice. Tumor volume was measured after treatment with Compound 1.
A suspension of MDA-MB-231 cells (5×10^6 cells in […]) was injected subcutaneously into the right flank of CR female NCr nu/nu mice on day 0. A sufficient number of mice were injected with MDA-MB-231 cell suspension (0.2 ml/mouse) so that tumors in a volume range as narrow as possible were selected for the trial on the day of treatment initiation. Animals with tumors in the proper size range (100˜150 mm^3) were assigned to various treatment groups. Compound 1 was dissolved in the mixture of 15% dimethylacetamide and 30% Solutol® HS15 in water. Solvent alone served as control. […] To quantify tumor growth, three perpendicular diameters of the tumors were measured with calipers every 3-4 days, and the body weight of the mice was monitored for toxicity. The tumor volume was calculated using the formula: tumor volume (mm^3)=(width)×(length)×(height)×π/6.

[8] = test system: HepG2 (liver); assay: SRB growth inhibition assay, HepG2; type: cell-based; conditions: Homo sapiens, 96 hours incubation, read-out: Inhibition of cell growth (IC50, μM) HepG2
Text: as §1, §2, §3, §4, §5

[9] = test system: MDA-MB-231 (breast); assay: SRB growth inhibition assay, MDA-MB-231; type: cell-based, Human; conditions: Homo sapiens, MDA-MB-231, 96 hours incubation, read-out: Inhibition of cell growth (IC50, μM) MDA-MB-231
Text: as §1, §2, §3, §4, §5, §6

[10] = test system: HCT116 (colon); assay: SRB growth inhibition assay, HCT116; type: cell-based, Human; conditions: Homo sapiens, HCT-116, 96 hours incubation, read-out: Inhibition of cell growth (IC50, μM) HCT116
Text: as §1, §2, §3, §4, §5, §6

[11] = test system: PC3 (prostate); assay: SRB growth inhibition assay, PC3; type: cell-based; conditions: Homo sapiens, 96 hours incubation, read-out: Inhibition of cell growth (IC50, μM) PC-3
Text: as §1, §2, §3, §4, §5

[12] = test system: U251 (brain); assay: SRB growth inhibition assay, U251; type: cell-based; conditions: Homo sapiens, U-251, 96 hours incubation, read-out: Inhibition of cell growth (IC50, μM) U251
Text: as §1, §2, §3, §4, §5

[13] = test system: A549 (lung); assay: SRB growth inhibition assay, A549; type: cell-based; conditions: Homo sapiens, 96 hours incubation, read-out: Inhibition of cell growth (IC50, μM) A549
Text: as §1, §2, §3, §4, §5

Row | Structure (SMILES) | IC50 [1] | IC50 [2] | IC50 [3] | IC50 [5] | IC50 [6] | IC50 [8] | IC50 [9] | IC50 [10] | IC50 [11] | IC50 [12] | IC50 [13] | IC50 [4] | inhibition of tumor growth (tumor volume) [7]
1 | COc1ccc2c(c1O)CCN(C(=O)c1nc(-c3ccc(F)cc3)nc3ccccc13)C2 [Compound 1, 2-[[2-(4-fluorophenyl)quinazolin-4-yl]carbonyl]-5-hydroxy-6-methoxy-1,2,3,4-tetrahydroisoquinoline] | 0.06 µM | 0.057 µM | 0.063 µM | 0.063 µM | 0.058 µM | 0.12 µM | 0.06 µM | 0.069 µM | 0.076 µM | 0.067 µM | 0.14 µM | 0.056 µM | inhibition of tumor growth
2 | COc1ccc2c(c1O)CCN(C(=O)c1nc(-c3ccccc3)nc3ccccc13)C2 [Compound 17, 2-[[2-phenylquinazolin-4-yl]carbonyl]-5-hydroxy-6-methoxy-1,2,3,4-tetrahydroisoquinoline] | 0.074 µM | 0.062 µM | 0.069 µM | 0.074 µM | 0.063 µM | 0.14 µM | 0.066 µM | 0.081 µM | 0.076 µM | 0.067 µM | 0.15 µM | 0.057 µM | –
3 | COc1ccc(-c2nc(C(=O)N3CCc4c(ccc(OC)c4O)C3)c3ccccc3n2)cc1 [Compound 22, 2-[[2-(4-methoxylphenyl)quinazolin-4-yl]carbonyl]-5-hydroxy-6-methoxy-1,2,3,4-tetrahydroisoquinoline] | 0.08 µM | 0.056 µM | 0.072 µM | 0.064 µM | 0.055 µM | 0.19 µM | 0.052 µM | 0.086 µM | 0.076 µM | 0.069 µM | 0.15 µM | 0.057 µM | –

Continued, in another order:

Row | IC50 [1] | IC50 [2] | IC50 [3] | IC50 [5] | IC50 [6] | IC50 [8] | IC50 [9] | IC50 [10] | IC50 [11] | IC50 [12] | IC50 [13] | Structure (SMILES) | IC50 [4] | inhibition of tumor growth (tumor volume) [7]
4 | 0.15 µM | 0.12 µM | 0.098 µM | 0.12 µM | 0.051 µM | 0.2 µM | 0.12 µM | 0.14 µM | 0.15 µM | 0.11 µM | 0.21 µM | COc1ccc2c(c1O)CCN(C(=O)c1nc(-c3cccc(F)c3)nc3ccccc13)C2 [Compound 42, 2-[[2-(3-fluorophenyl)quinazolin-4-yl]carbonyl]-5-hydroxy-6-methoxy-1,2,3,4-tetrahydroisoquinoline] | 0.082 µM | –
5 | 0.068 µM | 0.054 µM | 0.059 µM | 0.074 µM | 0.058 µM | 0.096 µM | 0.045 µM | 0.068 µM | 0.049 µM | 0.064 µM | 0.11 µM | COc1ccc2c(c1O)CCN(C(=O)c1nc(-c3ccncn3)nc3ccccc13)C2 [Compound 70, 2-[[2-(4-pyrimidinyl)quinazolin-4-yl]carbonyl]-5-hydroxy-6-methoxy-1,2,3,4-tetrahydroisoquinoline] | 0.055 µM | –
6 | 0.14 µM | 0.15 µM | 0.13 µM | 0.15 µM | 0.071 µM | 0.2 µM | 0.13 µM | 0.15 µM | 0.15 µM | 0.11 µM | 0.24 µM | COc1ccc2c(c1O)CCN(C(=O)c1nc(-c3cccnc3)nc3ccccc13)C2 [Compound 84, 2-[[2-(3-pyridinyl)quinazolin-4-yl]carbonyl]-5-hydroxy-6-methoxy-1,2,3,4-tetrahydroisoquinoline] | 0.093 µM | –

— patent US9713615B2, “Tetrahydroisoquinolin-2-yl-(quinazolin-4-yl)methanone compounds” (Rexahn Pharmaceuticals, Inc., priority 2013, dated 2017)
